Paper PMC12052742, “Engineering a newly identified alcohol dehydrogenase from Sphingobium Sp. for efficient utilization of nicotinamide cofactors biomimetics” (Bioresources and Bioprocessing, 2025)

Experiments:
Format in all cases: biochemical, Sphingobium sp. SYK-6
SpADH2 [1] = test: Preliminary evaluation of NCB usage in oxidation of syringyl alcohol (HPLC); settings: preliminary assay: 1a 1 mM, NCB 10 mM, pH 7.0, 30℃, 1 h
Experimental: Sphingobium sp. SYK-6 belongs to genus Sphingomonas, and a search in UniProtKB identified 19 ADHs from this strain, including 5 PQQ-dependent and the remaining NAD^+/NADP^+-dependent enzymes. Two sequences annotated as aryl-alcohol dehydrogenases (SLG_34580 and SLG_24930) (Table. S1) were selected for heterologous expression (Fig. S1) and named SpADH1 and SpADH2, respectively. Their ability to utilize NCBs was assessed by oxidation of syringyl alcohol (1a) to produce syringaldehyde (1b) (Fig. 1a).
Fig. 1 (a) Reaction scheme of SpADH2-catalyzed oxidation of syringyl alcohol. (b) Specific activity of SpADH2 toward four NCBs. The evaluation of NCBs usage by SpADH2 was carried out under following conditions: 50 mM PBS buffer (pH 7.0) and 30℃, with 1a (1 mM) as substrate and 4 typical NCBs (10 mM) as cofactor. A total of 0.1 mg/mL enzyme was added to a 200 µL reaction mixture, and was analyzed by HPLC after 1 h reaction
Reaction samples were analyzed using Agilent 1260 Infinity II LC system under reversed phase condition. Column: Agilent C18 column. Analytical conditions for 1a and 1b: mobile phase: 50% water: 50% acetonitrile. The retention time for standard product 1b was 3.27 min, under flow rate of 1 mL·min^− 1and temperature of 30°C (Fig. S4).

SpADH2 [2] = test: Cofactor spectrum of syringyl alcohol oxidation (HPLC specific activity), WT; settings: 1a 5 mM, cofactor 7.5 mM, pH 7.5, 30℃, 5 µg SpADH2, 1 h
Experimental: Fig. 2 Cofactor spectrum of syringyl alcohol oxidation catalyzed by SpADH2. The darkness of the background color for each cofactor stands for the activity of SpADH2 utilizing various cofactors. (a) NAD(P) ^+ and NMN^+ are shown in purple background. (b) tsNCBs are shown in cyan background. The evaluation of cofactor spectrum of SpADH2 was carried out under following conditions: 50 mM PBS buffer (pH 7.5) and 30℃, with 1a (5 mM) as substrate and different cofactors (7.5 mM) as cofactor. For NAD(P)^+ and NMN^+, 0.05 µg SpADH2 was added, and for tsNCBs, 5 µg SpADH2 was added. The results were analyzed by HPLC after 1 h reaction
(§1) Specific activity of SpADH2 in cofactor spectrum study was determined by HPLC analysis. PBS (pH 7.5) buffer was pre-heated at 30°C for 15 min. For NAD(P)^+ and NMN^+, 0.05 µg SpADH2 was added to PBS buffer (100 µL). For tsNCBs, 5 µg SpADH2 was added. A final concentration of 7.5 mM cofactor was added to the reaction mixture. Finally, a final concentration of 5 mM substrate was added to start the reaction. The reactions were conducted at 30°C.
(§2) One unit of enzyme activity is defined as the amount of enzyme required to form 1 µmol 1b per minute at pH 7.5 and 30°C. Same reaction without cofactor was used as a blank control.

SpADH2 variant H43L = test: Cofactor spectrum (HPLC specific activity), variant H43L; settings: 1a 5 mM, cofactor 7.5 mM, pH 7.5, 30℃, 5 µg enzyme
Experimental: (§3) Fig. 8 Cofactor spectrums of SpADH2 and its variants. The darkness of color for each cofactor stands for the activity. For each cofactor cube, top left: WT, top right: H43L, bottom left: A290I, bottom right: H43L/A290I. (a) Natural cofactors and NMN^+ are shown in purple. (b) tsNCBs are shown in cyan. The evaluation of cofactor spectrum was carried out under following conditions: 50 mM PBS buffer (pH 7.5) and 30℃, with 1a (5 mM) as substrate and different cofactors (7.5 mM) as cofactor. For NAD(P)^+ and NMN^+, 0.05 µg enzyme was added, and for tsNCBs, 5 µg enzyme was added. The results were analyzed by HPLC after 1 h reaction
as §1, §2

[3] = system: SpADH2 variant H43L/A290I; test: Cofactor spectrum (HPLC specific activity), variant H43L/A290I; settings: 1a 5 mM, cofactor 7.5 mM, pH 7.5, 30℃, 5 µg enzyme
Experimental: as §3, §1, §2

Compound | utilization of the NCB by SpADH2 (in words) (SpADH2 [1]) | utilization of the tsNCB by SpADH2 (in words) (SpADH2 [2]) | utilization of the tsNCB (in words) (SpADH2 variant H43L) | utilization of the tsNCB (in words) [3]
NC(=O)c1ccc[n+](CCc2ccccc2)c1 [P2NA^+, 3-carbamoyl-1-phenethylpyridin-1-ium] | could not be utilized | No detectable activity | exhibited activity | –
NC(=O)c1ccc[n+](CCCc2ccccc2)c1 [P3NA^+, 3-carbamoyl-1-(3-phenylpropyl)pyridin-1-ium] | could not be utilized | No detectable activity | – | acquired capability of utilizing
